According to PubChem BioAssay (NCI):
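The concentration for 50% growth inhibition is given as GI50. TGI: total growth inhibition.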

Key:
Assay in all cases: NCI-60 cell line screen, 384-well format
786-0 renal = test system: 786-0 renal
A498 renal = test system: A498 renal
A549 NSCLC = test system: A549 NSCLC
ACHN renal = test system: ACHN renal
BT-549 breast = test system: BT-549 breast
CAKI-1 renal = test system: CAKI-1 renal
CCRF-CEM leukemia = test system: CCRF-CEM leukemia
COLO 205 colon = test system: COLO 205 colon
DU-145 prostate = test system: DU-145 prostate
EKVX NSCLC = test system: EKVX NSCLC
HCC-2998 colon = test system: HCC-2998 colon
HCT-116 colon = test system: HCT-116 colon
HCT-15 colon = test system: HCT-15 colon
HL-60(TB) leukemia = test system: HL-60(TB) leukemia
HOP-62 NSCLC = test system: HOP-62 NSCLC
HOP-92 NSCLC = test system: HOP-92 NSCLC
HS 578T breast = test system: HS 578T breast
HT29 colon = test system: HT29 colon
IGROV1 ovarian = test system: IGROV1 ovarian
K-562 leukemia = test system: K-562 leukemia
KM12 colon = test system: KM12 colon
LOX IMVI melanoma = test system: LOX IMVI melanoma
M14 melanoma = test system: M14 melanoma
MALME-3M melanoma = test system: MALME-3M melanoma
MCF7 breast = test system: MCF7 breast
MDA-MB-231 breast = test system: MDA-MB-231 breast
MDA-MB-435 melanoma = test system: MDA-MB-435 melanoma
MDA-MB-468 breast = test system: MDA-MB-468 breast
MOLT-4 leukemia = test system: MOLT-4 leukemia
NCI-H226 lung = test system: NCI-H226 lung
NCI-H23 lung = test system: NCI-H23 lung
NCI-H322M lung = test system: NCI-H322M lung
NCI-H460 NSCLC = test system: NCI-H460 NSCLC
NCI-H522 lung = test system: NCI-H522 lung
NCI/ADR-RES ovarian = test system: NCI/ADR-RES ovarian
OVCAR-3 ovarian = test system: OVCAR-3 ovarian
OVCAR-4 ovarian = test system: OVCAR-4 ovarian
OVCAR-5 ovarian = test system: OVCAR-5 ovarian
PC-3 prostate = test system: PC-3 prostate
RPMI-8226 leukemia = test system: RPMI-8226 leukemia
RXF 393 renal = test system: RXF 393 renal
SF-268 CNS = test system: SF-268 CNS
SF-295 CNS = test system: SF-295 CNS
SF-539 CNS = test system: SF-539 CNS
SK-MEL-2 melanoma = test system: SK-MEL-2 melanoma
SK-MEL-28 melanoma = test system: SK-MEL-28 melanoma
SK-MEL-5 melanoma = test system: SK-MEL-5 melanoma
SK-OV-3 ovarian = test system: SK-OV-3 ovarian
SN12C renal = test system: SN12C renal
SNB-19 CNS = test system: SNB-19 CNS
SNB-75 CNS = test system: SNB-75 CNS
SR leukemia = test system: SR leukemia
SW-620 colon = test system: SW-620 colon
T-47D breast = test system: T-47D breast
TK-10 renal = test system: TK-10 renal
U251 glioblastoma = test system: U251 glioblastoma
UACC-257 melanoma = test system: UACC-257 melanoma
UACC-62 melanoma = test system: UACC-62 melanoma
UO-31 renal = test system: UO-31 renal

Cc1cc(Nc2cc(N3CCN(C)CC3)nc(C#Cc3ccccc3)n2)n[nH]1
GI50 ([…]-0 renal): 3.75 µM | TGI (786-0 renal): 15 µM | GI50 (A498 renal): 1.66 µM | TGI (A498 renal): 11 µM | GI50 (A549 NSCLC): 3.44 µM | TGI (A549 NSCLC): 12.2 µM | GI50 (ACHN renal): 1.23 µM | TGI (ACHN renal): 7.68 µM | GI50 (BT-549 breast): 2.58 µM | TGI (BT-549 breast): 7.09 µM | GI50 (CAKI-1 renal): 1.6 µM | TGI (CAKI-1 renal): 7.03 µM | GI50 (CCRF-CEM leukemia): 2.19 µM | TGI (CCRF-CEM leukemia): 7.01 µM | GI50 (COLO 205 colon): 3.73 µM | TGI (COLO 205 colon): 14.5 µM | GI50 (DU-145 prostate): 4.04 µM | TGI (DU-145 prostate): 17.4 µM | GI50 (EKVX NSCLC): 2.79 µM | TGI (EKVX NSCLC): 12.7 µM | GI50 (HCC-2998 colon): 0.348 µM | TGI (HCC-2998 colon): 6.72 µM | GI50 (HCT-116 colon): 2.94 µM | TGI (HCT-116 colon): 11.9 µM | GI50 (HCT-15 colon): 2.22 µM | TGI (HCT-15 colon): 11.4 µM | GI50 (HL-60(TB) leukemia): 2.12 µM | TGI (HL-60(TB) leukemia): 5.14 µM | GI50 (HOP-62 NSCLC): 3.28 µM | TGI (HOP-62 NSCLC): 13.5 µM | GI50 (HOP-92 NSCLC): 2.23 µM | TGI (HOP-92 NSCLC): 8.85 µM | GI50 (HS 578T breast): 2.24 µM | TGI (HS 578T breast): 9.92 µM | GI50 (HT29 colon): 3.95 µM | TGI (HT29 colon): 14.8 µM | GI50 (IGROV1 ovarian): 0.607 µM | TGI (IGROV1 ovarian): 3.28 µM | GI50 (K-562 leukemia): 2.63 µM | TGI (K-562 leukemia): 12.3 µM | GI50 (KM12 colon): 0.334 µM | TGI (KM12 colon): 10.4 µM | GI50 (LOX IMVI melanoma): 4.02 µM | TGI (LOX IMVI melanoma): 13 µM | GI50 (M14 melanoma): 3.13 µM | TGI (M14 melanoma): 16.5 µM | GI50 (MALME-3M melanoma): 2.57 µM | TGI (MALME-3M melanoma): 11.8 µM | GI50 (MCF7 breast): 3.07 µM | TGI (MCF7 breast): 15.1 µM | GI50 (MDA-MB-231 breast): 3.54 µM | TGI (MDA-MB-231 breast): 15.9 µM | GI50 (MDA-MB-435 melanoma): 3.18 µM | TGI (MDA-MB-435 melanoma): 12.6 µM | GI50 (MDA-MB-468 breast): 1.51 µM | TGI (MDA-MB-468 breast): 3.55 µM | GI50 (MOLT-4 leukemia): 1.26 µM | TGI (MOLT-4 leukemia): 2.58 µM | GI50 (NCI-H226 lung): 4.3 µM | TGI (NCI-H226 lung): 16.9 µM | GI50 (NCI-H23 lung): 2.3 µM | TGI (NCI-H23 lung): 10.9 µM | GI50 (NCI-H322M lung): 5.44 µM | TGI (NCI-H322M lung): 19.6 µM | GI50 (NCI-H460 NSCLC): 2.42 µM | TGI (NCI-H460 NSCLC): 12.1 µM | GI50 (NCI-H522 lung): 1.71 µM | TGI (NCI-H522 lung): 8.3 µM | GI50 (NCI/ADR-RES ovarian): 9.92 µM | TGI (NCI/ADR-RES ovarian): 22 µM | GI50 (OVCAR-3 ovarian): 2.12 µM | TGI (OVCAR-3 ovarian): 13.4 µM | GI50 (OVCAR-4 ovarian): 5.97 µM | TGI (OVCAR-4 ovarian): 20 µM | GI50 (OVCAR-5 ovarian): 3.53 µM | TGI (OVCAR-5 ovarian): 15.2 µM | GI50 (PC-3 prostate): 3.09 µM | TGI (PC-3 prostate): 13.9 µM | GI50 (RPMI-8226 leukemia): 3.24 µM | TGI (RPMI-8226 leukemia): 13.4 µM | GI50 (RXF 393 renal): 1.07 µM | TGI (RXF 393 renal): 4.32 µM | GI50 (SF-268 CNS): 4.58 µM | TGI (SF-268 CNS): 16.9 µM | GI50 (SF-295 CNS): 2.95 µM | TGI (SF-295 CNS): 13 µM | GI50 (SF-539 CNS): 3.62 µM | TGI (SF-539 CNS): 15.9 µM | GI50 (SK-MEL-2 melanoma): 4.14 µM | TGI (SK-MEL-2 melanoma): 6.87 µM | GI50 (SK-MEL-28 melanoma): 5.59 µM | TGI (SK-MEL-28 melanoma): 18.8 µM | GI50 (SK-MEL-5 melanoma): 2.49 µM | TGI (SK-MEL-5 melanoma): 12.9 µM | GI50 (SK-OV-3 ovarian): 1.04 µM | TGI (SK-OV-3 ovarian): 4.36 µM | GI50 (SN12C renal): 2.73 µM | TGI (SN12C renal): 12.7 µM | GI50 (SNB-19 CNS): 6.17 µM | TGI (SNB-19 CNS): 19.3 µM | GI50 (SNB-75 CNS): 1.73 µM | TGI (SNB-75 CNS): 4.35 µM | GI50 (SR leukemia): 1.36 µM | TGI (SR leukemia): 2.75 µM | GI50 (SW-620 colon): 3.42 µM | TGI (SW-620 colon): 12.5 µM | GI50 (T-47D breast): 9.61 µM | TGI (T-47D breast): 21.4 µM | GI50 (TK-10 renal): 2.48 µM | TGI (TK-10 renal): 15.2 µM | GI50 (U251 glioblastoma): 5.41 µM | TGI (U251 glioblastoma): 18.6 µM | GI50 (UACC-257 melanoma): 3.77 µM | TGI (UACC-257 melanoma): 14.3 µM | GI50 (UACC-62 melanoma): 3.1 µM | TGI (UACC-62 melanoma): 14.8 µM | GI50 (UO-31 renal): 2.2 µM | TGI (UO-31 renal): 8.13 µM
